Source: ChEMBL document CHEMBL1201862, “PubChem BioAssay data set” (2004)
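Briefly, cells in 96-well plates were exposed to five compound concentrations for 48 h, and endpoints were estimated by linear interpolation. GI50 marks 50% less growth.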 The source made the active and inactive calls. No stated cut-off is given here; in the data, active = GI50 up to about 1.1 µM and inactive = higher.

How the values were obtained:
Assay in all cases: NCI-60 cell line screen, 48 h
[1] = tested on: KM12
[2] = tested on: MDA-MB-435
[3] = tested on: NCI/ADR-RES
[4] = tested on: HT-29
[5] = tested on: MDA-N
[6] = tested on: BT-549
[7] = tested on: SK-MEL-28
[8] = tested on: UO-31
[9] = tested on: HCT-116
[10] = tested on: ACHN
[11] = tested on: NCI-H522
[12] = tested on: T47D
[13] = tested on: MCF7
[14] = tested on: RPMI-8226
[15] = tested on: UACC-257
[16] = tested on: OVCAR-5
[17] = tested on: HL-60
[18] = tested on: Malme-3M
[19] = tested on: COLO 205

Measured: GI50

COC(=O)/C(=N\NC(N)=O)C(C(=O)C(=O)Nc1ccccc1OC)c1nc2ccc([N+](=O)[O-])cc2nc1O (centres undefined)
inactive: [1] 58.1 µM | [2] 44.3 µM | [3] > 100 µM | [4] > 100 µM | [5] 55.1 µM | [6] > 100 µM | [7] > 100 µM | [8] > 100 µM | [9] > 100 µM | [10] > 100 µM | [11] > 100 µM | [12] > 100 µM | [13] > 100 µM | [14] > 100 µM | [15] > 100 µM | [16] > 100 µM | [17] > 100 µM | [18] > 100 µM

CCOc1ccccc1/N=N/C1C(=O)N(C(=O)CC(=O)Nc2ccccc2Cl)N=C1C (centres undefined)
inactive: [1] > 100 µM | [2] > 100 µM | [3] 89.3 µM | [4] > 100 µM | [5] > 100 µM | [6] 78.7 µM | [19] > 100 µM | [7] > 100 µM | [8] 47.4 µM | [9] 87.3 µM | [10] > 100 µM | [11] > 100 µM | [12] > 100 µM | [13] > 100 µM | [14] 27.2 µM | [15] > 10 µM | [16] > 100 µM | [17] 32.8 µM | [18] > 100 µM

CC1(C)OCC(C2OC(N3O[C@H](CI)C[C@@H]3c3ccccc3)C3OC(C)(C)OC23)O1 (some centres undefined)
inactive: [1] > 100 µM | [2] > 100 µM | [3] > 100 µM | [4] 61.9 µM | [5] > 100 µM | [6] 99.3 µM | [19] > 100 µM | [7] > 100 µM | [8] > 100 µM | [9] 61 µM | [10] > 100 µM | [11] > 100 µM | [12] > 100 µM | [13] > 100 µM | [14] 43 µM | [15] > 100 µM | [16] > 100 µM | [17] 66.5 µM | [18] > 100 µM

Cc1nn(C(=O)c2ccc(Cl)cc2)c2c1C(/C=C/c1ccccc1)SC(=N)N2 (centres undefined)
inactive: [1] > 10 µM | [2] > 10 µM | [3] > 10 µM | [4] > 10 µM | [5] > 10 µM | [6] > 10 µM | [19] > 10 µM | [7] > 10 µM | [9] > 10 µM | [10] > 10 µM | [11] > 10 µM | [12] > 10 µM | [13] > 10 µM | [14] > 10 µM | [15] > 10 µM | [16] > 10 µM | [17] > 10 µM | [18] > 10 µM

C1CCNCC1.CN(C)c1ccc(/C=C2/NC(=S)NC2=O)cc1
inactive: [2] 27.2 µM | [3] 77.4 µM | [4] 34.6 µM | [5] 36.3 µM | [6] 49.4 µM | [19] 49.9 µM | [7] 87.3 µM | [8] 44.5 µM | [9] 23.3 µM | [10] 64.7 µM | [11] 65.2 µM | [12] 30.1 µM | [13] 62.4 µM | [14] 24.5 µM | [15] 72.8 µM | [16] > 100 µM | [17] 19.7 µM | [18] > 100 µM

Cc1cc(=O)c2ccccc2n1CCCCCCCCCCn1c(C)cc(=O)c2ccccc21
inactive: [1] 15.9 µM | [2] 14.8 µM | [3] 16.6 µM | [4] 15.9 µM | [5] 17.5 µM | [6] 11 µM | [19] 21.9 µM | [7] 20.8 µM | [8] 12 µM | [9] 8.09 µM | [10] 25.2 µM | [11] 14.4 µM | [12] 16.3 µM | [13] > 10 µM | [15] 11.7 µM | [16] > 100 µM | [17] 4.38 µM | [18] 15.7 µM

COCc1nc2c(OC)c(-c3nc4ccc(N5CCN(C)CC5)nc4[nH]3)cc(OC)c2[nH]1
inactive: [1] 27.4 µM | [2] 41.8 µM | [3] > 100 µM | [4] 31 µM | [5] 73.3 µM | [6] > 100 µM | [19] 37.5 µM | [7] 28 µM | [8] 56.2 µM | [9] 30.1 µM | [10] 62.2 µM | [11] 37.7 µM | [12] 53 µM | [13] 40.5 µM | [15] 24 µM | [16] 40.4 µM | [17] 30.7 µM | [18] 20.7 µM

CCCC1C(=O)Nc2cccc3ncn(c23)C1=O (centres undefined)
inactive: [1] > 100 µM | [2] > 100 µM | [3] > 100 µM | [4] > 100 µM | [5] > 100 µM | [6] > 100 µM | [19] > 100 µM | [7] > 100 µM | [8] > 100 µM | [9] > 100 µM | [10] > 100 µM | [12] > 100 µM | [13] > 100 µM | [14] > 100 µM | [15] > 100 µM | [16] > 100 µM | [17] > 100 µM | [18] > 100 µM

COc1ccc(-c2cc(-c3ccc(C)cc3)n(C3OC(COC(C)=O)C(OC(C)=O)C(OC(C)=O)C3OC(C)=O)c(=S)c2C#N)cc1 (centres undefined)
inactive: [1] > 100 µM | [2] > 100 µM | [3] > 100 µM | [4] > 100 µM | [5] > 100 µM | [6] > 100 µM | [19] > 100 µM | [7] > 100 µM | [8] > 100 µM | [9] > 100 µM | [10] > 100 µM | [11] > 100 µM | [12] > 100 µM | [13] > 100 µM | [14] > 100 µM | [16] > 100 µM | [17] 49.3 µM | [18] > 100 µM

COC(=O)c1cc(NC(=O)c2cc(NC(=O)c3cc([N+](=O)[O-])cn3C)cn2C)cn1C
inactive: [1] 64.1 µM | [2] 98.6 µM | [3] 61.4 µM | [4] > 100 µM | [5] > 100 µM | [6] > 100 µM | [19] 44.4 µM | [7] > 100 µM | [8] 68.4 µM | [9] 43.4 µM | [10] 66.1 µM | [12] 12 µM | [13] > 100 µM | [14] 29.4 µM | [16] 81.1 µM | [17] 86.5 µM | [18] 26.9 µM

OC1(c2ccccc2)CC2CCC(C1)N2CCCC1(c2ccc(F)cc2)OCCO1 (centres undefined)
inactive: [2] > 100 µM | [3] 15.6 µM | [4] 36.5 µM | [5] > 100 µM | [6] > 100 µM | [19] 69.8 µM | [7] 36.1 µM | [8] 54.3 µM | [9] > 100 µM | [10] > 100 µM | [11] > 100 µM | [12] > 100 µM | [13] > 100 µM | [14] 61.4 µM | [15] 28.1 µM | [16] 79.3 µM | [17] 6.78 µM | [18] 98.4 µM
